Test results reported in paper PMC6757289, “Design and Characterization of SGK3-PROTAC1, an Isoform Specific SGK3 Kinase PROTAC Degrader” (ACS Chemical Biology, 2019).
Where two headings read alike, the source gives them in different places.

Assays:
Assay in all cases: kinase profiling panel
Type in all cases: biochemical
Settings in all cases: read-out: % Activity Remaining
SYK = SYK (Homo sapiens, UniProt P43405)
From the text: (§1) Protein kinase profiling against a Dundee panel of 140 protein kinases was undertaken at the International Centre for Protein Kinase Profiling. The result for each kinase was presented as a mean kinase activity of the reaction taken in triplicate relative to a control sample treated with DMSO. Assay conditions and abbreviations are available at http://www.kinase-screen.mrc.ac.uk.

PRK2 = PRK2 (Homo sapiens, UniProt Q16513)
From the text: as §1

EPH-B1 = target: T1, EPH-B1 (Homo sapiens, UniProt P54762)
T1 sequence (P54762 18-984): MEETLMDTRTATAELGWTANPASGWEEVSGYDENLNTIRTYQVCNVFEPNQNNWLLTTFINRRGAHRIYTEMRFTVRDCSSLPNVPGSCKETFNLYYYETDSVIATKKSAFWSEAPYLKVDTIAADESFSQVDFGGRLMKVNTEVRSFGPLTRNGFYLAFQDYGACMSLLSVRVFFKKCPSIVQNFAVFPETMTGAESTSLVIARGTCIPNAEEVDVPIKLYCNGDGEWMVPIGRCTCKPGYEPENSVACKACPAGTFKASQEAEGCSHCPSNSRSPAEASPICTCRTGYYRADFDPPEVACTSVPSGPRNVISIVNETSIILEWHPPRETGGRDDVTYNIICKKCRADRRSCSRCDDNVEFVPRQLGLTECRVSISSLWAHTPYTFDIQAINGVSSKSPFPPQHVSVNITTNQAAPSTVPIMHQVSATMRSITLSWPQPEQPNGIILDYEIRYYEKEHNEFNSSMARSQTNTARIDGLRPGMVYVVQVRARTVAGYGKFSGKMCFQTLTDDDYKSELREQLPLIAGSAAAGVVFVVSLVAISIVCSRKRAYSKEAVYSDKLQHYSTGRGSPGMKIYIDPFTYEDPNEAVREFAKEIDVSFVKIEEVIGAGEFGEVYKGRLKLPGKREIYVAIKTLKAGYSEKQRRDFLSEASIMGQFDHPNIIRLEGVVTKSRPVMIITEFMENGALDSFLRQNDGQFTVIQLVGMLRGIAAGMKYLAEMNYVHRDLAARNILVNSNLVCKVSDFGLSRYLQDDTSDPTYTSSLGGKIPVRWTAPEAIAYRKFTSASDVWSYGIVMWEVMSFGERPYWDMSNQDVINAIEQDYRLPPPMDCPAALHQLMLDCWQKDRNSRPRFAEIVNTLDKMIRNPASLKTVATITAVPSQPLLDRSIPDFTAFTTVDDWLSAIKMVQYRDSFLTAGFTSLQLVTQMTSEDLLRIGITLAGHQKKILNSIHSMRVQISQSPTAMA
From the text: as §1

p38 delta MAPK = target: T2, p38 delta MAPK (Homo sapiens, UniProt O15264)
T2 sequence (O15264 1-365): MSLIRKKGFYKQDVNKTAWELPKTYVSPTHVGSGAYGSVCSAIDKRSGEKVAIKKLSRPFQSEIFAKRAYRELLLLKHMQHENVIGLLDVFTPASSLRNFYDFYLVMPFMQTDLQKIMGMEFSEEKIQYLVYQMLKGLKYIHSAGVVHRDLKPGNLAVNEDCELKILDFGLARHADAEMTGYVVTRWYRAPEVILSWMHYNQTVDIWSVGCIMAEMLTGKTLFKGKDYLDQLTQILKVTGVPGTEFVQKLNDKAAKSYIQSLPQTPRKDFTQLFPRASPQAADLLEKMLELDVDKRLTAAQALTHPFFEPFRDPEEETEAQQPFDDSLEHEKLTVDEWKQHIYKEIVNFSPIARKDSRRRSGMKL
From the text: as §1

TGFBR1 = target: T3, TGFBR1 (Homo sapiens, UniProt P36897)
T3 sequence (P36897 34-503): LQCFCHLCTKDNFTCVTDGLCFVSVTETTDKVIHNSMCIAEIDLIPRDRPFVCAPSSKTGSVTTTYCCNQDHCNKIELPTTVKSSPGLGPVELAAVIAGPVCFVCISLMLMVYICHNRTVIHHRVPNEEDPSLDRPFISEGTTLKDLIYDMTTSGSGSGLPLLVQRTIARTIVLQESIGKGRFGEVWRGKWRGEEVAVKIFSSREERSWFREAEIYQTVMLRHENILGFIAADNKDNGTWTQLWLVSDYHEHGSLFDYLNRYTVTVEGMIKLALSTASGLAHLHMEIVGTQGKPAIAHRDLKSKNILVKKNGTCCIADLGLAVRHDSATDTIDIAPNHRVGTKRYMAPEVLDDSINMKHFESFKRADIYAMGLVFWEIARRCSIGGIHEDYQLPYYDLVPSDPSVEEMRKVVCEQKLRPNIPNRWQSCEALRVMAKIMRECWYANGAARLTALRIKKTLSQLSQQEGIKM
From the text: as §1

PAK5 = PAK5 (Homo sapiens, UniProt Q9P286)
From the text: as §1

SIK3 = SIK3 (Homo sapiens, UniProt Q9Y2K2)
From the text: as §1

ERK2 = ERK2 (Homo sapiens, UniProt P28482)
From the text: as §1

MNK2 = MNK2 (Homo sapiens, UniProt Q9HBH9)
From the text: as §1

CDK9-Cyclin T1 = CDK9-Cyclin T1 (Homo sapiens, UniProt P50750)
From the text: as §1

MAPKAP-K2 = MAPKAP-K2 (Homo sapiens, UniProt P49137)
From the text: as §1

CK1 gamma 2 = CK1 gamma 2 (Homo sapiens, UniProt P78368)
From the text: as §1

PRK2, sequence (Q16513 whole entry): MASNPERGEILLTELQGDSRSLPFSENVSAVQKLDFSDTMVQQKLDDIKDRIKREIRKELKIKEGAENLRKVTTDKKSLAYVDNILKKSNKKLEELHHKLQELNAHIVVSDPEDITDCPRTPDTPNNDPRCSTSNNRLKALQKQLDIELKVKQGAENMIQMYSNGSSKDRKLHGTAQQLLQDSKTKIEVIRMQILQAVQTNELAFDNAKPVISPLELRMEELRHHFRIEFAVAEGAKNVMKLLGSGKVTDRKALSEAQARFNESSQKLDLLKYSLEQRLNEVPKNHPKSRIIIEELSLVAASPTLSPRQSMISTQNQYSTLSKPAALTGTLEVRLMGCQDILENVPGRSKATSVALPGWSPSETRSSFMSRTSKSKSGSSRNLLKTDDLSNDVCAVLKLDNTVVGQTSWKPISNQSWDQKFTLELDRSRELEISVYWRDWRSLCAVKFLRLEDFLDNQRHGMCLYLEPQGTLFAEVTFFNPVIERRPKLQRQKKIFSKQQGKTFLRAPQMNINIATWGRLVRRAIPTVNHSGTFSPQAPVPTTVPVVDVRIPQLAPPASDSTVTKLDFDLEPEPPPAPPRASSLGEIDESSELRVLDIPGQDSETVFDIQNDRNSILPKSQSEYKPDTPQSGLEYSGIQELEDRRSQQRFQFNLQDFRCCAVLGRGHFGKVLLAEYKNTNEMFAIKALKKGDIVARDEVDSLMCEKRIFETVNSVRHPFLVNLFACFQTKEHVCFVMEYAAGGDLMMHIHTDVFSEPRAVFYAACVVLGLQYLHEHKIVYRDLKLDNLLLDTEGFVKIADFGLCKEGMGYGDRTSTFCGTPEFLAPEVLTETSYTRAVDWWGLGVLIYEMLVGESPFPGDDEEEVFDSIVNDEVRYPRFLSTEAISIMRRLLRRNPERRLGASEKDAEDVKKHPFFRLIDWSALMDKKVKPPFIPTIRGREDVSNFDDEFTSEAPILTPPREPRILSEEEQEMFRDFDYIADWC
PAK5, sequence (Q9P286 whole entry): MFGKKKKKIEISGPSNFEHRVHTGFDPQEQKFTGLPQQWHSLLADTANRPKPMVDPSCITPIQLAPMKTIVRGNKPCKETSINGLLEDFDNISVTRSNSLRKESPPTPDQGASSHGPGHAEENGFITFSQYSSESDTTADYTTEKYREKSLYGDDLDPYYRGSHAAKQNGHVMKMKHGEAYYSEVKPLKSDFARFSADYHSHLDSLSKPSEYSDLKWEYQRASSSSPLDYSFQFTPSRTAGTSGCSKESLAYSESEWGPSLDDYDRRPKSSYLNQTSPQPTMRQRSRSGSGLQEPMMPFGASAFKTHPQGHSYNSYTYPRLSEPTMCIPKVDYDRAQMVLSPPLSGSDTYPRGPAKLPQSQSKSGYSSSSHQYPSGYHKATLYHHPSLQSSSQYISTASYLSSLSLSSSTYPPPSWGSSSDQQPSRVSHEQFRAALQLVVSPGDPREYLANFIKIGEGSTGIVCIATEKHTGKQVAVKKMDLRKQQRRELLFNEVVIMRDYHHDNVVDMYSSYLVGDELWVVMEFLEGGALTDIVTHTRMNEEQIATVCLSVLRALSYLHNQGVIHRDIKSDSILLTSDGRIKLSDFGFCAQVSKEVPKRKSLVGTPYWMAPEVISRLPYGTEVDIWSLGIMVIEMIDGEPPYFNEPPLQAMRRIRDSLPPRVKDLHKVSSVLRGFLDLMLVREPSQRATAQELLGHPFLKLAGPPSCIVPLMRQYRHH
MAPKAP-K2, sequence (P49137 whole entry): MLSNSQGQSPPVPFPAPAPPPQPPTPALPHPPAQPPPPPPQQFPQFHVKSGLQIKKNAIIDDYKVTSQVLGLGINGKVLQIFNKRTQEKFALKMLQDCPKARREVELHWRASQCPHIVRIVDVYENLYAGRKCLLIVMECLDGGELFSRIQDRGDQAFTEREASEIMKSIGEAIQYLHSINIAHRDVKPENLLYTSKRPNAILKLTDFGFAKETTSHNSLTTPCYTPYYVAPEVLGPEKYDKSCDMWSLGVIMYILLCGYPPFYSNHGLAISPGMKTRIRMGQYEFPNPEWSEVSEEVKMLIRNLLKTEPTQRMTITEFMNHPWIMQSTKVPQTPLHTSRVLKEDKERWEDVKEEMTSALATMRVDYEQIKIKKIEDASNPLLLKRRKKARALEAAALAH
CK1 gamma 2, sequence (P78368 whole entry): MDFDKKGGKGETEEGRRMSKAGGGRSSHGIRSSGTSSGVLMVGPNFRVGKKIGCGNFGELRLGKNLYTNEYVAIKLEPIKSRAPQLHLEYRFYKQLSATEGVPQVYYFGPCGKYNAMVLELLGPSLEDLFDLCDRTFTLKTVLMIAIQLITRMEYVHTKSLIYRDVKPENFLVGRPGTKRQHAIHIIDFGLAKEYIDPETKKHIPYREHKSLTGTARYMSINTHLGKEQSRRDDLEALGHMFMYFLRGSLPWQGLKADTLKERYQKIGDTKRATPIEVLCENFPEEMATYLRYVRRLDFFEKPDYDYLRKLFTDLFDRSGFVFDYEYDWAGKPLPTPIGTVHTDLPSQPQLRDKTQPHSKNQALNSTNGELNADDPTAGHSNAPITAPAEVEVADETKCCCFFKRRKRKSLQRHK
SIK3, sequence (Q9Y2K2 whole entry): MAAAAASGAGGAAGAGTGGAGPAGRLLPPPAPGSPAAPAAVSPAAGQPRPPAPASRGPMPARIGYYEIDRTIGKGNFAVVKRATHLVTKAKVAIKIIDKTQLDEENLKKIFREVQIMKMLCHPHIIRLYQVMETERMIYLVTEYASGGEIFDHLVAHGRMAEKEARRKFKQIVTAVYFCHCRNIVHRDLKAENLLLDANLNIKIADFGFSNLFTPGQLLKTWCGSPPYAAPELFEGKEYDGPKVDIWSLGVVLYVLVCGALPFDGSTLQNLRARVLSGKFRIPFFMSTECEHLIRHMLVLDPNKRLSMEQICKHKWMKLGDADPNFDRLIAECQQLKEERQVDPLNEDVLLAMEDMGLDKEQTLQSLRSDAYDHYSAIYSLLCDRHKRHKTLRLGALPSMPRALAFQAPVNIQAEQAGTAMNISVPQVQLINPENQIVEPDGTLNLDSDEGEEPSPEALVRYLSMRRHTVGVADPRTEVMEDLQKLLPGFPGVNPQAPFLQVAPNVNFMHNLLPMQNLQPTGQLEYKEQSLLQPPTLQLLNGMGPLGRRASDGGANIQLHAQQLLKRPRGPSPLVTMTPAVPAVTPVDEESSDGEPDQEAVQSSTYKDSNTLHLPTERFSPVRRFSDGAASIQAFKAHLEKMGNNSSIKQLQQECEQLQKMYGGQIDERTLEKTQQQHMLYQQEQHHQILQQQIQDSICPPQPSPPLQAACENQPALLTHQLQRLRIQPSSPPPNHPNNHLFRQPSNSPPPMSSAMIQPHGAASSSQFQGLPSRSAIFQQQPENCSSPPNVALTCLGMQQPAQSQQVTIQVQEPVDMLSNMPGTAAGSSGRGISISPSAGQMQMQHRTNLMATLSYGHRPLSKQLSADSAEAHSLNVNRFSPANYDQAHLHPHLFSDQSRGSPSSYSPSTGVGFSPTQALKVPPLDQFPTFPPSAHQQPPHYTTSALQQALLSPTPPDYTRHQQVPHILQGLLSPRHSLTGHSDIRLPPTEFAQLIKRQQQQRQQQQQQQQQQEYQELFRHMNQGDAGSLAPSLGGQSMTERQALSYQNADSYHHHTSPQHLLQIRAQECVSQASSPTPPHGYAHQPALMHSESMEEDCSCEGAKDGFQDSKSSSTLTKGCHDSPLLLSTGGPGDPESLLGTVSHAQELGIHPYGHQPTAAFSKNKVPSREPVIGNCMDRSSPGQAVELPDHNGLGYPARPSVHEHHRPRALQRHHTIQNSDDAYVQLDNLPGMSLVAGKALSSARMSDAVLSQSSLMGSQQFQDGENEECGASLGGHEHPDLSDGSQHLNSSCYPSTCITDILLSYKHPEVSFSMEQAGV
MNK2, sequence (Q9HBH9 whole entry): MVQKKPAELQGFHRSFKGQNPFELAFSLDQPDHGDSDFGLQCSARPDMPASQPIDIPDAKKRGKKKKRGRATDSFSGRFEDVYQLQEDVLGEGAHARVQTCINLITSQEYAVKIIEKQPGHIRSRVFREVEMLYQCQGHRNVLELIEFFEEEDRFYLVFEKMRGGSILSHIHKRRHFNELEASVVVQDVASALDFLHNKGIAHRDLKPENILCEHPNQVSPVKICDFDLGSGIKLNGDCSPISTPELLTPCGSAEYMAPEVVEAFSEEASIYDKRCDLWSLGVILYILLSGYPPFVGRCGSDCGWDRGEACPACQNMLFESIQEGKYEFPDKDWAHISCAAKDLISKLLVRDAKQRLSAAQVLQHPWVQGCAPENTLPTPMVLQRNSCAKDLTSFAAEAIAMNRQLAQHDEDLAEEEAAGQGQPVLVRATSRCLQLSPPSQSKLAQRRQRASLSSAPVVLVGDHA
ERK2, sequence (P28482 whole entry): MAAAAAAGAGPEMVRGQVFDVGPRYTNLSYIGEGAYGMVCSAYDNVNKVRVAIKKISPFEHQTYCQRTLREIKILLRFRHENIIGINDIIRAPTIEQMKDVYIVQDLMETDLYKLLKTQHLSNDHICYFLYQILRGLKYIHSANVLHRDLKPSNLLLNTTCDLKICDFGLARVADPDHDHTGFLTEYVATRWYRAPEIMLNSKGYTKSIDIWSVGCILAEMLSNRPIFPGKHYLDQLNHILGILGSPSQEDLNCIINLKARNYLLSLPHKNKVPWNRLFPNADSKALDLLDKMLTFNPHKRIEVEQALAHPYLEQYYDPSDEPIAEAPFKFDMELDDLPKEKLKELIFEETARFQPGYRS

| SMILES | remaining activity at 1 µM (SYK; 1 µM) | remaining activity at 1 µM (PRK2; 1 µM) | remaining activity at 1 µM (EPH-B1; 1 µM) | remaining activity at 1 µM (p38 delta MAPK; 1 µM) | remaining activity at 1 µM (TGFBR1; 1 µM) | remaining activity at 1 µM (PAK5; 1 µM) | remaining activity at 1 µM (SIK3; 1 µM) | remaining activity at 1 µM (ERK2; 1 µM) | remaining activity at 1 µM (MNK2; 1 µM) | remaining activity at 1 µM (CDK9-Cyclin T1; 1 µM) | remaining activity at 1 µM (MAPKAP-K2; 1 µM) | remaining activity at 1 µM (CK1 gamma 2; 1 µM) | remaining activity at 1 µM (SYK) | remaining activity at 1 µM (PRK2) | remaining activity at 1 µM (EPH-B1) | remaining activity at 1 µM (p38 delta MAPK) | remaining activity at 1 µM (TGFBR1) | remaining activity at 1 µM (PAK5) | remaining activity at 1 µM (SIK3) | remaining activity at 1 µM (ERK2) | further results |
| --- | --- | --- | --- | --- | --- | --- | --- | --- | --- | --- | --- | --- | --- | --- | --- | --- | --- | --- | --- | --- | --- |
| Cc1ccc(F)c(S(=O)(=O)Nc2ccc(-c3nc(OC[C@H]4CN(CCCCCCOCCOCCOCC(=O)N[C@H](C(=O)N5C[C@H](O)C[C@H]5C(=O)NCc5ccc(-c6scnc6C)cc5)C(C)(C)C)CCO4)c4cn[nH]c4n3)cc2)c1 [SGK3-PROTAC1] | 116% | 105% | 100% | 103% | 124% | 88% | 79% | 104% | 122% | 103% | 86% | 101% | – | – | – | – | – | – | – | – | – |
| COc1ccc(Cl)c(S(=O)(=O)Nc2ccc(-c3nc(OC[C@H]4CNCCO4)c4c(C)n[nH]c4n3)cc2)c1 [290-R, reference compound] | – | – | – | – | – | – | – | – | – | – | – | – | 88% | 76% | 117% | 111% | 120% | 110% | 102% | 109% | remaining activity at 1 µM (MNK2): 119%; remaining activity at 1 µM (CDK9-Cyclin T1): 105%; remaining activity at 1 µM (MAPKAP-K2): 87%; remaining activity at 1 µM (CK1 gamma 2): 112% |
| Cc1ccc(F)c(S(=O)(=O)Nc2ccc(-c3nc(OC[C@H]4CN(CCCCCCOCCOCCOCC(=O)N[C@H](C(=O)N5C[C@@H](O)C[C@H]5C(=O)NCc5ccc(-c6scnc6C)cc5)C(C)(C)C)CCO4)c4cn[nH]c4n3)cc2)c1 [cisSGK3-PROTAC1] | 103% | 101% | 108% | 121% | 114% | 105% | 117% | 95% | 122% | 105% | 92% | 106% | – | – | – | – | – | – | – | – | – |
| Cc1ccc(F)c(S(=O)(=O)Nc2ccc(-c3nc(OC[C@H]4CNCCO4)c4cn[nH]c4n3)cc2)c1 [308-R, reference compound] | – | – | – | – | – | – | – | – | – | – | – | – | 100% | 82% | 96% | 126% | 120% | 83% | 69% | 110% | remaining activity at 1 µM (MNK2): 78%; remaining activity at 1 µM (CDK9-Cyclin T1): 63%; remaining activity at 1 µM (MAPKAP-K2): 83%; remaining activity at 1 µM (CK1 gamma 2): 67% |
